# Measured values from patent publication US20230148214A1, “INDAZOLES AND AZAINDAZOLES AS LRRK2 INHIBITORS” (ESCAPE Bio, Inc., priority 2020, published 2023).
# Key:
# [1] = molecular target: T1, LRRK2 WT (Homo sapiens, UniProt Q5S007); assay: LRRK2 Kinase Activity Assay (LanthaScreen TR-FRET), wild type; assay type: biochemical; conditions: recombinant wild type LRRK2, 25 μM ATP, 400 nM LRRKtide, 60 min
# T1 construct: purchased Life Technologies PR8604B
# In short: (§1)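 IC50 fitted to the compound-dependent loss of TR-FRET signal. Each kinase form, wild type or G2019S, phosphorylated the fluorescein-tagged ERM-derived LRRKtide in the presence of ATP and compound dilutions over 60 min at room temperature; quench contained 10 mM EDTA and 2 nM anti-pERM antibody (final).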
# [2] = molecular target: T2, LRRK2 G2019S (Homo sapiens, UniProt Q5S007, G2019S); assay: LRRK2 Kinase Activity Assay (LanthaScreen TR-FRET), G2019S; assay type: biochemical; conditions: recombinant G2019S-LRRK2, 25 μM ATP, 400 nM LRRKtide, 60 min; class symbols
# T2 construct: purchased Life Technologies PV4881
# In short: as §1
# T1 sequence (Q5S007 whole entry): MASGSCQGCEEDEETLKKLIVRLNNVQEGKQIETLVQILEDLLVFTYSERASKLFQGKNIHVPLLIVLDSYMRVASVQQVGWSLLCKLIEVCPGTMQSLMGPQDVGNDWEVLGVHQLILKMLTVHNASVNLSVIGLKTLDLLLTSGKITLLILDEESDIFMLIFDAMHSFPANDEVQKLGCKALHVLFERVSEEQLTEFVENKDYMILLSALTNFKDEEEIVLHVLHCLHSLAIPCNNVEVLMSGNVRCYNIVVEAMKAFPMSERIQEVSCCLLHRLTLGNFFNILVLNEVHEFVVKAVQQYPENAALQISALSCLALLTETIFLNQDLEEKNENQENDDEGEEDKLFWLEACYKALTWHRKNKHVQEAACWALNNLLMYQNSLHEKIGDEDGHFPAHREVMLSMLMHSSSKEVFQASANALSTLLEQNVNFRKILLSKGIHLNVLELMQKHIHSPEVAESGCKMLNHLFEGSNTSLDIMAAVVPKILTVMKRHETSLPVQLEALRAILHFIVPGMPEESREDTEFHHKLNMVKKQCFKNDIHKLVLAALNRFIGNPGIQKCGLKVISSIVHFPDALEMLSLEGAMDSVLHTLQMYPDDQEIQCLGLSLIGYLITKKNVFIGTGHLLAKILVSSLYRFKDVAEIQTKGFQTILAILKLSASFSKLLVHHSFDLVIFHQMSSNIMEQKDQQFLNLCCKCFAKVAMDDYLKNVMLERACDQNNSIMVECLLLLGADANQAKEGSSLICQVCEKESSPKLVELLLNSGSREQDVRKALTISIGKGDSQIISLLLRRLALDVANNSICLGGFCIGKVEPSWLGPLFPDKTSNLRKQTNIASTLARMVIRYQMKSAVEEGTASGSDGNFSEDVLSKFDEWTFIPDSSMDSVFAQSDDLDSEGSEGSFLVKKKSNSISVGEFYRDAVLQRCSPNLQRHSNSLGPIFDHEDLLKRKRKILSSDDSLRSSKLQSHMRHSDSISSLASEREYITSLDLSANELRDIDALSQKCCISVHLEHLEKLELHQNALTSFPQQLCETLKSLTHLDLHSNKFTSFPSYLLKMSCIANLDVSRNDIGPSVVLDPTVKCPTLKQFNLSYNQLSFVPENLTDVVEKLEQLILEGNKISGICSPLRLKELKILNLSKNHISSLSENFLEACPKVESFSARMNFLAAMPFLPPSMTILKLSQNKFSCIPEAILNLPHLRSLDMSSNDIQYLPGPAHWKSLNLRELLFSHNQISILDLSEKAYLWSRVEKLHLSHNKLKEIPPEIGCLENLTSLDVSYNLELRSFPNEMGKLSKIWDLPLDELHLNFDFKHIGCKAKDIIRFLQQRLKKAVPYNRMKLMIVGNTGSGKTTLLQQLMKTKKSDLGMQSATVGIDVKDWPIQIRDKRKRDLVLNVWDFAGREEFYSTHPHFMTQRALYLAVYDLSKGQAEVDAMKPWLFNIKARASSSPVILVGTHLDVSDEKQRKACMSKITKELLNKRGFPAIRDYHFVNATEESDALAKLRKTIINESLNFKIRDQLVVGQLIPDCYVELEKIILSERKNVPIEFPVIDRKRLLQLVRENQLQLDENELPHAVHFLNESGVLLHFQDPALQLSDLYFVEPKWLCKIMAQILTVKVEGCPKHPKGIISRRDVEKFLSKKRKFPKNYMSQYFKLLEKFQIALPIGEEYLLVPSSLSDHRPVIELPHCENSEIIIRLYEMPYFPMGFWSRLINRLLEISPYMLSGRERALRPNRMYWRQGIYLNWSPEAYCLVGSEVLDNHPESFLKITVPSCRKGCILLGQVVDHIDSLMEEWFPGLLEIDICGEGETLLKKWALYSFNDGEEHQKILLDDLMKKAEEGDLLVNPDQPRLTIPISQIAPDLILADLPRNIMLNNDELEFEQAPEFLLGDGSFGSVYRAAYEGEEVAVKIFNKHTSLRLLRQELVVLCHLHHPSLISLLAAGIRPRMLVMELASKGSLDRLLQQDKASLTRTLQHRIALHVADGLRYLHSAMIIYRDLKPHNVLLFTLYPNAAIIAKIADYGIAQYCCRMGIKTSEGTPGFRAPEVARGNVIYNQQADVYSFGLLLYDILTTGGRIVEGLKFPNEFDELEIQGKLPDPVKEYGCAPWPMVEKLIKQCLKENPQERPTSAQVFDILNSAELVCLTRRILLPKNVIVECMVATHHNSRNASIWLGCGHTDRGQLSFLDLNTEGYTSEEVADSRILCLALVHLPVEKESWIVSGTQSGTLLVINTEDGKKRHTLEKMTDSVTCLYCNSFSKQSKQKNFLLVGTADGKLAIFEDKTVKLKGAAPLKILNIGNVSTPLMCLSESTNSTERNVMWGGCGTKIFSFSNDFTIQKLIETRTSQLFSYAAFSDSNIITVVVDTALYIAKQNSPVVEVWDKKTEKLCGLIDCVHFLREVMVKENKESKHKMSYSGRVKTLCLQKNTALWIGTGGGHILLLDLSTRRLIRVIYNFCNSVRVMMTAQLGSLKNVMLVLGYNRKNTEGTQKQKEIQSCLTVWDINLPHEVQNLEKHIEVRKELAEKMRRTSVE
# T2 sequence (Q5S007 whole entry G2019S): as the sequence (Q5S007 whole entry) above, with G2019S counted along it
SMILES,IC50 ([1]; class symbols) [nM],IC50 [2] [nM],IC50 ([1]; numeric bound) [nM]
"N#Cc1ccc2c(c1)CCC[C@@H]2Nc1ccc2[nH]nc(-c3ccc4c(c3)NC(=O)C4)c2c1 (single isomer, unassigned) [Example 82, 5-((3-(2-Oxoindolin-6-yl)-1H-indazol-5-yl)amino)-5,6,7,8-tetrahydronaphthalene-2-carbonitrile]",< 100,< 100,–
"Cn1cc2cc(-c3n[nH]c4ccc(N[C@H]5CCCc6cc(C#N)ccc65)cc34)ccc2n1 (single isomer, unassigned) [Example 83, 5-((2′-Methyl-1H,2′H-[3,5′-biindazol]-5-yl)amino)-5,6,7,8-tetrahydronaphthalene-2-carbonitrile]",< 100,< 100,–
"N#Cc1cccc(-c2n[nH]c3ccc(N[C@H]4CCCc5cc(C#N)ccc54)cc23)c1 (single isomer, unassigned) [Example 89, 5-((3-(3-Cyanophenyl)-1H-indazol-5-yl)amino)-5,6,7,8-tetrahydronaphthalene-2-carbonitrile]",< 100,< 100,–
"N#Cc1ccc2c(c1)CCC[C@@H]2Nc1ccc2[nH]nc(-c3ccc(C#N)nc3)c2c1 (single isomer, unassigned) [Example 91, 5-(5-((6-Cyano-1,2,3,4-tetrahydronaphthalen-1-yl)amino)-1H-indazol-3-yl)picolinonitrile]",100 to 1000,< 100,–
"N#Cc1ccc2c(c1)CCC[C@@H]2Nc1ccc2[nH]nc(/C=C/c3ccccc3)c2c1 (single isomer, unassigned) [Example 93, (E)-5-((3-Styryl-1H-indazol-5-yl)amino)-5,6,7,8-tetrahydronaphthalene-2-carbonitrile]",< 100,< 100,–
"N#Cc1ccc2c(c1)CCC[C@@H]2Nc1ccc2[nH]nc(-c3cnn4c3CCC4)c2c1 (single isomer, unassigned) [Example 96, 5-((3-(5,6-Dihydro-4H-pyrrolo[1,2-b]pyrazol-3-yl)-1H-indazol-5-yl)amino)-5,6,7,8-tetrahydronaphthalene-2-carbonitrile]",< 100,< 100,–
"N#Cc1ccc2c(c1)CCC[C@@H]2Nc1ccc2[nH]nc(-c3cccnc3)c2c1 (single isomer, unassigned) [Example 98, 5-((3-(Pyridin-3-yl)-1H-indazol-5-yl)amino)-5,6,7,8-tetrahydronaphthalene-2-carbonitrile]",< 100,< 100,–
"C/C=C\c1n[nH]c2ccc(N[C@H]3CCCc4cc(C#N)ccc43)cc12 (single isomer, unassigned) [Example 99, (Z)-5-((3-(Prop-1-en-1-yl)-1H-indazol-5-yl)amino)-5,6,7,8-tetrahydronaphthalene-2-carbonitrile]",100 to 1000,< 100,–
"Cc1cncc(-c2n[nH]c3ccc(N[C@H]4CCCc5cc(C#N)ccc54)cc23)c1 (single isomer, unassigned) [Example 100, 5-((3-(5-Methylpyridin-3-yl)-1H-indazol-5-yl)amino)-5,6,7,8-tetrahydronaphthalene-2-carbonitrile]",< 100,< 100,–
"COc1c(C#N)ccc2c1CCC[C@@H]2Nc1ccc2[nH]nc(-c3cnco3)c2c1 (single isomer, unassigned) [Example 101, enantiomer 1, 1-Methoxy-5-{[3-(1,3-oxazol-5-yl)-1H-indazol-5-yl]amino}-5,6,7,8-tetrahydronaphthalene-2-carbonitrile]",< 100,< 100,–
"COc1nc2c(cc1C#N)CCC[C@@H]2Nc1ccc2[nH]nc(-c3cnco3)c2c1 (single isomer, unassigned) [Example 102, enantiomer 1, 2-Methoxy-8-((3-(oxazol-5-yl)-1H-indazol-5-yl)amino)-5,6,7,8-tetrahydroquinoline-3-carbonitrile]",< 100,< 100,–
"COc1nc2c(cc1C#N)CCC[C@@H]2Nc1ccc2[nH]nc(-c3cnco3)c2c1 (single isomer, unassigned) [Example 102, enantiomer 2, 2-Methoxy-8-((3-(oxazol-5-yl)-1H-indazol-5-yl)amino)-5,6,7,8-tetrahydroquinoline-3-carbonitrile]",1000 to 10000,100 to 1000,–
"N#Cc1cnc2c(c1)CC[C@@H]2Oc1ccc2[nH]nc(-c3cnco3)c2c1 (single isomer, unassigned) [Example 103, enantiomer 1, 7-((3-(Oxazol-5-yl)-1H-indazol-5-yl)oxy)-6,7-dihydro-5H-cyclopenta[b]pyridine-3-carbonitrile]",< 100,< 100,–
"N#Cc1ccc2c(c1)CCCC[C@@H]2Nc1ccc2[nH]nc(-c3cnco3)c2c1 (single isomer, unassigned) [Example 104, enantiomer 2, 5-((3-(Oxazol-5-yl)-1H-indazol-5-yl)amino)-6,7,8,9-tetrahydro-5H-benzo[7]annulene-2-carbonitrile]",100 to 1000,100 to 1000,–
"CC1(C)C[C@H](Nc2ccc3[nH]nc(-c4cnco4)c3c2)c2ccc(C#N)cc21 (single isomer, unassigned) [Example 105, enantiomer 1, 3,3-Dimethyl-1-((3-(oxazol-5-yl)-1H-indazol-5-yl)amino)-2,3-dihydro-1H-indene-5-carbonitrile]",100 to 1000,< 100,–

# Now from value to compound:
IC50 ([1]; class symbols) [nM],IC50 [2] [nM],IC50 ([1]; numeric bound) [nM],SMILES
< 100,< 100,–,"N#Cc1ccc2c(c1)CCC[C@@H]2Nc1ccc2[nH]nc(-c3ccc(C(=O)N4CCOCC4)cc3)c2c1 (single isomer, unassigned) [Example 81, 5-((3-(4-(Morpholine-4-carbonyl)phenyl)-1H-indazol-5-yl)amino)-5,6,7,8-tetrahydronaphthalene-2-carbonitrile]"
100 to 1000,< 100,–,"N#Cc1ccc2c(c1)CCC[C@@H]2Nc1ccc2[nH]nc(-c3ccc4c(c3)OCCO4)c2c1 (single isomer, unassigned) [Example 84, 5-((3-(2,3-Dihydrobenzo[b][1,4]dioxin-6-yl)-1H-indazol-5-yl)amino)-5,6,7,8-tetrahydronaphthalene-2-carbonitrile]"
< 100,< 100,–,"CC(=O)Nc1cccc(-c2n[nH]c3ccc(N[C@H]4CCCc5cc(C#N)ccc54)cc23)c1 (single isomer, unassigned) [Example 85, N-(3-(5-((6-Cyano-1,2,3,4-tetrahydronaphthalen-1-yl)amino)-1H-indazol-3-yl)phenyl)acetamide]"
< 100,< 100,–,"CN(C)C(=O)c1cccc(-c2n[nH]c3ccc(N[C@H]4CCCc5cc(C#N)ccc54)cc23)c1 (single isomer, unassigned) [Example 86, 3-(5-((6-Cyano-1,2,3,4-tetrahydronaphthalen-1-yl)amino)-1H-indazol-3-yl)-N,N-dimethylbenzamide]"
1000 to 10000,100 to 1000,–,"N#Cc1ccc2c(c1)CCC[C@@H]2Nc1ccc2[nH]nc(C3=CCC4(CC3)OCCO4)c2c1 (single isomer, unassigned) [Example 87, 5-((3-(1,4-Dioxaspiro[4.5]dec-7-en-8-yl)-1H-indazol-5-yl)amino)-5,6,7,8-tetrahydronaphthalene-2-carbonitrile]"
100 to 1000,< 100,–,"N#Cc1ccc2c(c1)CCC[C@@H]2Nc1ccc2[nH]nc(C3=CCOCC3)c2c1 (single isomer, unassigned) [Example 88, 5-((3-(3,6-Dihydro-2H-pyran-4-yl)-1H-indazol-5-yl)amino)-5,6,7,8-tetrahydronaphthalene-2-carbonitrile]"
100 to 1000,< 100,–,"COc1ccc(-c2n[nH]c3ccc(N[C@H]4CCCc5cc(C#N)ccc54)cc23)cc1 (single isomer, unassigned) [Example 92, 5-((3-(4-Methoxyphenyl)-1H-indazol-5-yl)amino)-5,6,7,8-tetrahydronaphthalene-2-carbonitrile]"
–,1000 to 10000,> 10000,"CN1CC=C(c2n[nH]c3ccc(N[C@H]4CCCc5cc(C#N)ccc54)cc23)CC1 (single isomer, unassigned) [Example 94, 5-((3-(1-Methyl-1,2,3,6-tetrahydropyridin-4-yl)-1H-indazol-5-yl)amino)-5,6,7,8-tetrahydronaphthalene-2-carbonitrile]"
1000 to 10000,< 100,–,"N#Cc1ccc2c(c1)CCC[C@@H]2Nc1ccc2[nH]nc(-c3ccc(Br)cc3)c2c1 (single isomer, unassigned) [Example 95, 5-((3-(4-Bromophenyl)-1H-indazol-5-yl)amino)-5,6,7,8-tetrahydronaphthalene-2-carbonitrile]"
100 to 1000,< 100,–,"Cn1ccc(-c2n[nH]c3ccc(N[C@H]4CCCc5cc(C#N)ccc54)cc23)cc1=O (single isomer, unassigned) [Example 97, 5-((3-(1-Methyl-2-oxo-1,2-dihydropyridin-4-yl)-1H-indazol-5-yl)amino)-5,6,7,8-tetrahydronaphthalene-2-carbonitrile]"
< 100,< 100,–,"N#Cc1ccc2c(c1)CCCC[C@@H]2Nc1ccc2[nH]nc(-c3cnco3)c2c1 (single isomer, unassigned) [Example 104, enantiomer 1, 5-((3-(Oxazol-5-yl)-1H-indazol-5-yl)amino)-6,7,8,9-tetrahydro-5H-benzo[7]annulene-2-carbonitrile]"
100 to 1000,< 100,–,"CC1(C)C[C@H](Nc2ccc3[nH]nc(-c4cnco4)c3c2)c2ccc(C#N)cc21 (single isomer, unassigned) [Example 105, enantiomer 2, 3,3-Dimethyl-1-((3-(oxazol-5-yl)-1H-indazol-5-yl)amino)-2,3-dihydro-1H-indene-5-carbonitrile]"
